Holding throughout (assay type): in vivo
The subject of test [1] is Russian thistle (Salsola kali). As to the kind of experiment: Test C pre-/postemergence: Russian thistle. The conditions noted are these: Preemergence. The method in brief:
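Preemergence on seeds in loam/sand, postemergence on 2–18 cm (1–4-leaf) plants in peat-based medium; compounds in non-phytotoxic solvent with surfactant. After 13–15 days in greenhouse, visual rating versus controls, 0 (no effect) to 100 (complete control).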

Test [2] has as its system ryegrass, Italian (Italian ryegrass, Lolium multiflorum). The test can be described thus: Test D pre-/postemergence: ryegrass, Italian. Summed up:
(§1)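 Visual control ratings (0–100) after 14–21 days, controlled environment. Preemergence on silt loam; postemergence on 2–18 cm plants.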

In test [3] the test system is oilseed rape (Brassica napus). The test can be described thus: Test D pre-/postemergence: oilseed rape. The method in brief:
as §1

Test [4] deals with wheat, spring (spring wheat, Triticum aestivum). As to the kind of experiment: Test D pre-/postemergence: wheat, spring. The method in brief:
as §1

For test [5], the system named is kochia (Kochia scoparia). The test can be described thus: Test F pre-/postemergence: kochia. The settings on record: Preemergence. The text has this:
Seeds of plant species selected from corn (Zea mays), soybean (Glycine max), velvetleaf (Abutilon theophrasti), lambsquarters (Chenopodium album), poinsettia, wild (wild poinsettia, Euphorbia heterophylla), pigweed, palmer (palmer pigweed, Amaranthus palmeri), waterhemp (common waterhemp, Amaranthus rudis), surinam grass (Brachiaria decumbens), crabgrass, Brazil (Brazilian crabgrass, Digitaria horizontalis), panicum, fall (fall panicum Panicum dichotomiflorum), crabgrass, large (large crabgrass, Digitaria sanguinalis), foxtail, giant (giant foxtail, Setaria faberii), foxtail, green (green foxtail Setaria viridis), goosegrass (Eleusine indica), ragweed (common ragweed, Ambrosia elatior), barnyardgrass (Echinochloa crus-galli), sandbur (southern sandbur, Cenchrus echinatus), arrowleaf sida (Sida rhombifolia), ryegrass, Italian (Italian ryegrass, Lolium multiflorum), dayflower, VA (Virginia (VA) dayflower, Commelina virginica), field bindweed (Convolvulus arvensis), cocklebur (common cocklebur, Xanthium strumarium), morningglory (Ipomoea coccinea), nightshade (eastern black nightshade, Solanum ptycanthum), kochia (Kochia scoparia), nutsedge, yellow (yellow nutsedge, Cyperus esculentus), johnsongrass (Sorghum halepense), smartweed (ladysthumb smartweed, Polygonum persicaria), and beggarticks (hairy beggarticks, Bidens pilosa), were planted into a silt loam soil and treated preemergence with test chemicals formulated in a non-phytotoxic solvent mixture which included a surfactant. At the same time, plants selected from these crop and weed species and also pigweed (Amaranthus retroflexus), waterhemp_RES1 (ALS/Triazine resistant common waterhemp, Amaranthus rudis) and waterhemp_RES2 (ALS/HPPD resistant common waterhemp, Amaranthus rudis) were planted in pots containing a planting medium comprising spaghnum peat moss, vermiculite, wetting agent and starter nutrients treated with postemergence applications of some of the test chemicals formulated in the same manner. Plants ranged in height from 2 to 18 cm for postemergence treatments (1- to 4-leaf stage).
Treated plants and controls were maintained in a greenhouse for 14 to 21 days, after which time all species were compared to controls and visually evaluated. Plant response ratings, summarized in Table E, are based on a scale of 0 to 100 where 0 is no effect and 100 is complete control. A dash (-) response means no test result.

The mark [6] stands for this setting: 62 g ai/ha, scale of 0 to 100, 0 is no effect, 100 is complete control.
Setting [7] is: 125 g ai/ha, scale 0 to 100, 0 no effect, 100 complete control.
Setting [8] is: 250 g ai/ha, scale 0 to 100, 0 no effect, 100 complete control.
[9] abbreviates: Postemergence, 31 g ai/ha, scale 0 to 100 (0 no effect, 100 complete control).
The mark [10] stands for this setting: Postemergence, 62 g ai/ha, scale 0 to 100 (0 no effect, 100 complete control).
Where [11] appears, read: Postemergence, 125 g ai/ha, scale 0 to 100, 0 no effect, 100 complete control.
The mark [12] stands for this setting: Postemergence, 16 g ai/ha, scale 0 to 100.
The mark [13] stands for this setting: Preemergence, 16 g ai/ha, scale 0 to 100, 0 no effect, 100 complete control.
[14] abbreviates: Preemergence, 31 g ai/ha, scale 0 to 100, 0 no effect, 100 complete control.
Setting [15] is: Preemergence, 62 g ai/ha, scale 0 to 100.
The mark [16] stands for this setting: Preemergence, 125 g ai/ha, scale 0 to 100.
Setting [17] is: 16 g ai/ha, scale 0 to 100, 0 no effect, 100 complete control.
[18] abbreviates: 31 g ai/ha, scale 0 to 100, 0 no effect, 100 complete control.
[19] abbreviates: 31 g ai/ha, scale of 0 to 100, 0 is no effect, 100 is complete control.
Where [20] appears, read: Postemergence, 250 g ai/ha, scale 0 to 100 (0 no effect, 100 complete control).
The mark [21] stands for this setting: Preemergence, 250 g ai/ha, scale 0 to 100.

As for `Cc1nn(-c2ccc(C(F)(F)F)c(F)c2)nc1Oc1ccnc(C(F)(F)F)c1` [Compound 148], the “Plant response rating, Russian Thistle” value in test [1] (setting [6]) was determined as 85; in test [1] (setting [7]), 95; in test [1] (setting [8]), 95. Also, the “Plant response rating: Ryegrass, Italian” value in test [2] (setting [9]) was 15; in test [2] (setting [10]), 20; in test [2] (setting [11]), 20. Moreover, the “Plant response rating, Ryegrass, Italian” value was determined as 5 in test [2] (setting [12]); 0 in test [2] (setting [13]); 5 in test [2] (setting [14]); 5 in test [2] (setting [15]); 35 in test [2] (setting [16]). Besides, the “Plant response rating: Oilseed Rape” value came to 35 in test [3] (setting [9]), 80 in test [3] (setting [10]) and 100 in test [3] (setting [11]). Also, the “Plant response rating, Oilseed Rape” value is reported as 30 in test [3] (setting [12]); 5 in test [3] (setting [13]); 0 in test [3] (setting [14]); 10 in test [3] (setting [15]); 20 in test [3] (setting [16]). For the same molecule, the “Plant response rating: Wheat, Spring” value in test [4] (setting [9]) was 10; in test [4] (setting [10]) it was 20; in test [4] (setting [11]), 25. Moreover, the “Plant response rating, Wheat, Spring” value in test [4] (setting [12]) is 10; in test [4] (setting [13]), 0; in test [4] (setting [14]), 0; in test [4] (setting [15]) it was 0; in test [4] (setting [16]), 5. Further, the “Plant response rating, Kochia” value is on record as 0 in test [5] (setting [17]); 90 in test [5] (setting [18]); 90 in test [5] (62 g ai/ha, scale 0 to 100); 95 in test [5] (125 g ai/ha, scale 0 to 100); 98 in test [5] (250 g ai/ha, scale 0 to 100).

Take `COc1nn(-c2cccc(F)c2)nc1Cc1ccnc(C(F)(F)F)c1` [Compound 139]: in test [1] (setting [8]), the “Plant response rating, Russian Thistle” value is 5. For the same molecule, the “Plant response rating, Kochia” value is reported as 0 in test [5] (setting [17]); 0 in test [5] (setting [18]); 35 in test [5] (62 g ai/ha, scale 0 to 100); 90 in test [5] (125 g ai/ha, scale 0 to 100); 98 in test [5] (250 g ai/ha, scale 0 to 100).

`Cc1nn(-c2ccc(F)cc2F)nc1Oc1ccnc(C(F)(F)F)c1` [Compound 146]: the “Plant response rating, Russian Thistle” value in test [1] (setting [19]) was determined as 0; in test [1] (setting [6]), 0; in test [1] (setting [7]) it was 80; in test [1] (setting [8]), 95. In addition, the “Plant response rating, Kochia” value in test [5] (setting [17]) stood at 0; in test [5] (setting [18]) it was 5; in test [5] (62 g ai/ha, scale 0 to 100), 30; in test [5] (125 g ai/ha, scale 0 to 100) it was 50; in test [5] (250 g ai/ha, scale 0 to 100) it was 98.

Regarding `Cc1nn(-c2ccc(C(F)(F)F)cc2)nc1Oc1ccnc(C(F)(F)F)c1` [Compound 120], the entries for the “Plant response rating, Russian Thistle” value in test [1] (setting [19]), in test [1] (setting [7]) and in test [1] (setting [8]) were 0, 85 and 100, respectively. The “Plant response rating: Ryegrass, Italian” value was 5 in test [2] (setting [9]), 10 in test [2] (setting [10]), 15 in test [2] (setting [11]) and 30 in test [2] (setting [20]). In addition, the “Plant response rating, Ryegrass, Italian” value in test [2] (setting [12]) came to 5; in test [2] (setting [13]) it was 0; in test [2] (setting [14]), 5; in test [2] (setting [15]), 40; in test [2] (setting [16]), 80; in test [2] (setting [21]), 100. In addition, the “Plant response rating: Oilseed Rape” value in test [3] (setting [9]) was 50; in test [3] (setting [10]), 80; in test [3] (setting [11]), 90; in test [3] (setting [20]), 98. For the same molecule, the “Plant response rating, Oilseed Rape” value in test [3] (setting [12]) was found to be 20; in test [3] (setting [13]), 0; in test [3] (setting [14]), 10; in test [3] (setting [15]), 10; in test [3] (setting [16]), 30; in test [3] (setting [21]), 70. Also, the “Plant response rating: Wheat, Spring” value in test [4] (setting [9]) is on record as 10; in test [4] (setting [10]), 10; in test [4] (setting [11]), 20; in test [4] (setting [20]), 25. Besides, the “Plant response rating, Wheat, Spring” value was 10 in test [4] (setting [12]); 0 in test [4] (setting [13]); 0 in test [4] (setting [14]); 5 in test [4] (setting [15]); 10 in test [4] (setting [16]); 20 in test [4] (setting [21]).

With `CCOc1nn(-c2ccc(F)cc2)nc1Cc1ccnc(C(F)(F)F)c1` [Compound 196, 4-[[5-ethoxy-2-(4-fluorophenyl)-2H-1,2,3-triazol-4-yl]methyl]-2-(trifluoromethyl)pyridine], the “Plant response rating, Russian Thistle” value came to 90 in test [1] (31 g ai/ha, scale 0 (no effect) to 100 (complete control)); 90 in test [1] (62 g ai/ha, scale 0 to 100, 0 no effect, 100 complete control); 90 in test [1] (setting [7]); 90 in test [1] (setting [8]). The “Plant response rating: Ryegrass, Italian” value came out at 15 in test [2] (setting [9]), 30 in test [2] (setting [10]) and 75 in test [2] (setting [11]). For the same molecule, the “Plant response rating, Ryegrass, Italian” value in test [2] (setting [12]) is 5; in test [2] (setting [13]) it was 5; in test [2] (setting [14]), 10; in test [2] (setting [15]) it was 60; in test [2] (setting [16]), 100. Further, the “Plant response rating: Oilseed Rape” value in test [3] (setting [9]), in test [3] (setting [10]) and in test [3] (setting [11]) was 100 in each case. For the same molecule, the “Plant response rating, Oilseed Rape” value came to 80 in test [3] (setting [12]); 5 in test [3] (setting [13]); 15 in test [3] (setting [14]); 100 in test [3] (setting [15]); 100 in test [3] (setting [16]). Moreover, the “Plant response rating: Wheat, Spring” value in test [4] (setting [9]) is reported as 25; in test [4] (setting [10]), 35; in test [4] (setting [11]), 35. The “Plant response rating, Wheat, Spring” value is 15 in test [4] (setting [12]); 0 in test [4] (setting [13]); 5 in test [4] (setting [14]); 5 in test [4] (setting [15]); 25 in test [4] (setting [16]). Further, the “Plant response rating, Kochia” value in test [5] (8 g ai/ha, scale 0 to 100, 0 no effect, 100 complete control) was determined as 5; in test [5] (setting [17]) it was 5; in test [5] (setting [18]), 10; in test [5] (62 g ai/ha, scale 0 to 100), 100; in test [5] (125 g ai/ha, scale 0 to 100), 100.

The record behind these values is patent US9302999B2, “Substituted triazoles as herbicides” (E. I. DU PONT DE NEMOURS AND COMPANY, priority 2012, dated 2016).
